What was measured:
[1] = Kinetic study in dogs (effect of salt or crystal form on blood kinetics); type: in vivo; conditions: 6 mg/3 mL/kg expressed in terms of levodopa
Description: (2) Kinetic Study in Dogs (Effect of Salt or Crystal Form on Blood Kinetics)
In general, it is considered that when the salt or crystal form is different, a difference in solubility thereof or the like affects blood kinetics and sometimes causes a difference in potency of efficacy.
The collection of a plasma sample was carried out according to the previous section (1). However, the dose was set to 6 mg/3 mL/kg.
The preparation of an analytical sample and analysis were carried out according to the previous section (1).
In the above Table 6, a change over time in the concentration (μg/mL) of levodopa observed in the plasma when the compound of the present invention produced in Example 6, the compound of the present invention produced in Example 9, or the compound of the present invention produced in Example 10 was orally administered to dogs is shown. The numeral expressed with ± in the parenthesis represents a standard deviation.

[2] = test system: rat model injected with 6-hydroxydopamine into the medial forebrain bundle; experiment: Rotation test in model injected with 6-hydroxydopamine into medial forebrain bundle; type: in vivo, rats (male Crl:CD(SD)IGS); conditions: 6-OHDA rats
Excerpt: In the experiment, male Crl:CD(SD)IGS rats (Charles River Japan, Inc.) supplied at 5 weeks of age were used. The rats were housed in Econ cages (4 or less rats per cage) and were raised by giving free access to solid feed CRF-1 (Oriental Yeast Co., Ltd.) and tap water (in a water bottle) until they were subjected to the experiment. When acclimation after shipping was completed, each of the Crl:CD(SD)IGS rats at 6 weeks of age was anesthetized with pentobarbital sodium (Somnopentyl (registered trademark) injectable solution, 35 mg/kg, intraperitoneal injection). Subsequently, for the purpose of preventing damage to norepinephrine neurons by 6-hydroxydopamine (6-OHDA), desipramine (25 mg/kg) was intraperitoneally injected, and the rat was held and fixed by a brain fixation device. A small bone window was opened with a hand drill at a desired site, and 6-OHDA was injected into the medial forebrain bundle according to the brain atlas of Paxinos and Watson using a 30 G cannula (Brain Science Idea. Co. Ltd.) with a needle tip cut at an angle of 45° (site of injection: A=−4.5 mm, L=+1.2 mm, and V=−7.8 mm with respect to the bregma, injection amount: 8 μg/4 μL/8 min/site in each case). […] Thereafter, the burr hole was closed with an instant glue, and then sutured and disinfected with iodine tincture. […] In a rotation test, a device configured such that a black plastic circular cylinder having a diameter of 30 cm and a height of 35 cm was placed upright in a black-painted bowl having an opening diameter of 35 cm and a bottom diameter of 17 cm was used (the height of the curve from the bottom of the bowl to the bottom edge of the cylinder was set to 7 cm). The rat was placed in the device (one rat per device) and acclimated to the device for 30 minutes. Thereafter, a test substance was administered to the rat, and the rat was returned to the same device and videotaped. […] As for the number of rotations, a 360° rotation in one direction was determined to be one rotation. In the case where the direction (body's direction of movement or movement direction) was changed during rotation, the rotation was not included in the count. […] Incidentally, in each case, benserazide which is a dopa decarboxylase inhibitor (8 mg/kg) was orally administered concomitantly. […] In addition, the respective values are each a mean of the values obtained using 11 rats in each group and its standard error.

[3] = Kinetic study in dogs (oral administration, plasma levodopa)
Excerpt: The relationship between the blood concentration of levodopa and side effects in patients who take levodopa has been gradually elucidated. […] In order to reduce the number of doses of levodopa and avoid side effects such as dyskinesia and wearing-off in patients who take levodopa, it is necessary to maintain the blood concentration of levodopa within a therapeutic range as long as possible.
These levodopa prodrugs are prodrugs containing an ester bond, and therefore, it is considered that among a number of enzymes, carboxyesterase plays the most important role in the process of producing levodopa by metabolizing the compound after the compound is administered in vivo. Therefore, as an animal species to be used for performing a kinetic study, dogs in which the organ distribution of carboxyesterase is most similar to that of humans were selected as subjects for evaluation.
The thus obtained drug solution was administered by gavage through a gastric tube into the stomach of dogs (male beagle dogs) which were fasted from the day before the administration. At 15 and 30 minutes, and 1, 2, 4, 6, and 8 hours after administration of the drug solution, 1 mL of blood was collected from a cephalic vein with a heparinized syringe. Immediately after the collection, the collected blood was centrifuged in a desktop centrifuge at 14500 rpm for 45 seconds. Then, acetonitrile containing 0.1125% formic acid was added to the thus obtained plasma in an amount as twice as large as the volume of the plasma, followed by stirring, and then, the resulting sample was stored at −20° C. until measurement.
The sample was thawed on the measurement day, followed by stirring and centrifugation at 13000 rpm for 3 minutes (at 4° C.). The resulting supernatant was filtered and the filtrate was analyzed by LC/MS/MS. The analysis was performed by LC/MS/MS under the following conditions.
Measurement Apparatus: API-5000 (manufactured by Applied Biosystems, Inc.)
Analytical column: CAPCELL PAK CR (1:4) (4.6 mm, I.D.×250 mm, 5 μm)
Analytical column temperature: 40° C.
Mobile phase: A: 5 mM ammonium formate (pH 3.9), B: acetonitrile (A/B=17/3)
Detection (levodopa): m/z (precursor): 196.19, m/z (product): 134.99
DP (Declustering Potential): −60
CE (Collision Energy): −25
CXP (Collision Cell Exit Potential): −17
Incidentally, the numerical value in the column which indicates the dose expressed in terms of levodopa refers to a dose equivalent to that of levodopa.

[4] = in vivo; cited from earlier work
[5] = test system: p53R2; experiment: Mutagenicity assay using mammalian cells (NESMAGET method); type: cell-based; conditions: for Mutagenicity assay (NESMAGET) Concentration at which mutagenicity was determined to be positive: concentration at which relative luciferase activity of p53R2 exceeded 200% (vehicle control 0.3% dimethylsulfoxide = 100%); for determination of mutagenicity: positive = relative luciferase activity of p53R2 exceeded 200%, compound of the present invention up to 200 μg/mL
Description: In the treatment of Parkinson's disease and/or Parkinson's syndrome, there is a possibility that a levodopa prodrug is continued to be taken over a long period of time of several years to several decades. Therefore, an evaluation was carried out as to whether or not the compound of the present invention has mutagenicity by a mutagenicity assay using mammalian cells.
A mutagenicity assay using mammalian cells was carried out as a commissioning test to be undertaken by Nissin Foods Holdings Co., Ltd. The present method also called NESMAGET method is a method in which the expression of p53R2 which is a DNA repair gene is detected by luciferase activity, and the specific experimental technique is described in JP-A-2005-000024 and Japanese Patent No. 4243716. In the determination as to whether or not the result of this test was positive, the luciferase activity of p53R2 in the case of a vehicle control (0.3% dimethylsulfoxide) was taken as 100%, and a concentration at which a relative luciferase activity exceeded 200% was determined to be “concentration at which mutagenicity was determined to be positive”.

[6] = male, beagle, dog, in vivo, po, 3 mg/kg

Row | SMILES | Absorption through oral administration [1] | Cmax/C6 hr (ratio of maximum plasma concentration and plasma concentration at 6 hours after oral administration, levodopa) [3, 6] | AUC (area under the blood concentration-time curve of levodopa) ([3]; dog, in vivo, po, 3 mg/kg) [μg^+ hr/mL] | Mutagenicity assay (NESMAGET) Concentration at which mutagenicity was determined to be positive [5] [µg/mL] | determination of mutagenicity [5] | other results
1 | CC(C)(OC(=O)c1ccccc1)C(=O)Oc1ccc(C[C@H](N)C(=O)O)cc1OC(=O)C(C)(C)OC(=O)c1ccccc1.Cc1ccc(S(=O)(=O)O)cc1 [Example 6, (2S)-2-amino-3-(3,4-bis((2-(benzoyloxy)-2-methylpropanoyl)oxy)phenyl)propanoic acid tosylate] | can be absorbed through oral administration |  |  |  |  | 
2 | CC(C)(OC(=O)c1ccccc1)C(=O)Oc1ccc(C[C@H](N)C(=O)O)cc1OC(=O)C(C)(C)OC(=O)c1ccccc1 [Example 9, (2S)-2-amino-3-(3,4-bis((2-(benzoyloxy)-2-methylpropanoyl)oxy)phenyl)propanoic acid] | can be absorbed through oral administration |  |  |  |  | rotational behavior compared with the compound produced in Example 5 ([2]; used in place of Example 5): the same results were obtained
3 | CC(C)(OC(=O)c1ccccc1)C(=O)Oc1ccc(C[C@H](N)C(=O)O)cc1OC(=O)C(C)(C)OC(=O)c1ccccc1 [Example 10, (2S)-2-amino-3-(3,4-bis((2-(benzoyloxy)-2-methylpropanoyl)oxy)phenyl)propanoic acid] | can be absorbed through oral administration |  |  |  |  | 
4 | N[C@@H](Cc1ccc(O)c(O)c1)C(=O)O [Levodopa, L-3,4-dihydroxyphenylalanine] |  | 913.8 |  |  |  | AUC (area under the blood concentration-time curve of levodopa) ([3]; levodopa in plasma, fasted male beagle dogs, oral gavage, dose 3 mg/kg expressed in terms of levodopa): 0.96 μg^+ hr/mL; AUC ([3]; male, beagle, dog, plasma, po, 3 mg/kg): 960 ng·h/mL; time after administration at which the number of rotations reached a maximum value ([2]; oral, levodopa 30 mg/kg or Example 5 100 mg/kg expressed in terms of levodopa, benserazide 8 mg/kg): 20 min; maximum value of the number of rotations per 10 minutes ([2]; oral, levodopa 30 mg/kg or Example 5 100 mg/kg expressed in terms of levodopa, benserazide 8 mg/kg concomitantly, N=11): about 100 times; percentage of the absorbed levodopa distributed in the central nervous system [4]: less than 1%; share of the absorbed levodopa metabolized by aromatic L-amino acid decarboxylase (AADC) in organs other than the central nervous system [4]: ≥ 95%
5 | CC(C)(COC(=O)c1ccsc1)C(=O)Oc1ccc(C[C@H](N)C(=O)O)cc1OC(=O)C(C)(C)COC(=O)c1ccsc1.Cl [Reference Example 11, (2S)-2-Amino-3-(3,4-bis((2,2-dimethyl-3-((thiophene-3-carbonyl)oxy)propanoyl)oxy)phenyl)propanoic acid hydrochloride] |  | 23.9 | 0.52 | 1.4 | positive for mutagenicity | 
6 | COc1ccccc1C(=O)OCC(C)(C)C(=O)Oc1ccc(C[C@H](N)C(=O)O)cc1OC(=O)C(C)(C)COC(=O)c1ccccc1OC.Cl [Reference Example 16] |  | 7.4 | 0.22 | 84 | positive for mutagenicity | 
7 | CC(C)(COC(=O)c1ccccc1)C(=O)Oc1ccc(C[C@H](N)C(=O)O)cc1OC(=O)C(C)(C)COC(=O)c1ccccc1.Cl [Reference Example 40, (S)-2-Amino-3-(3,4-bis((3-(benzoyloxy)-2,2-dimethylpropanoyl)oxy)phenyl)propanoic acid hydrochloride] |  | 4.3 | 0.81 | 16 | positive for mutagenicity | 
